Values after ≈ are worked out from the molar mass of the structure shown.
Legend:
Strep. pyog. ATCC 19615 = experiment: MIC by agar incorporation method, S. pyogenes 19615; format: cell-based, Streptococcus pyogenes; details: in vitro, 18 hours
Source text: (§1) The compounds of the invention display antibacterial activity when tested by the agar incorporation method. The following minimum inhibitory concentrations (μg/ml) were obtained for representative compounds of the invention which are given below in the following table.
(§2) 1) S. aureus ATCC 25923—Staphylococus aureus ATCC 25923 2) MRSA 15187—Methicillin Resistant Staphylococcus aureus 3) Ent. faecalis ATCC 29212—Enterococcus faecalis ATCC 29212 4) Ent. faecium 6A—Enterococcus faecium 6A Van®, Cipro® 5) Strep. pne. ATCC 6303—Streptococcus pneumoniae ATCC 6303 6) Strep. pyog. ATCC 19615—Streptococcus pyogenes 7) S. epidermidis—Staphylococcus epidermidis ATCC 12228
(§3) Briefly, the compounds were dissolved in dimethylsulfoxide and doubling dilution of the compounds were incorporated into Meer Hilton agar before solidification. Inoculum was prepared by suspending 4 to 5 colonies into 5 ml of normal saline solution and adjusting the turbility to 0.5 Macfarland turbidity standard tables (1.5×10^8 CFU/ml), after appropriate dilutions, 10^4 CFU/spot was transferred into the surface of dried plate and incubated for 18 hours (24 hours for MRSN studies). The concentration showing no growth of the inoculated culture was recorded as the MIC. Appropriate ATCC standard strains were simultaneously tested and result recorded only when the MIC's against standard antibiotics were within the acceptable range.

Strep. pne. ATCC 6303 = experiment: MIC by agar incorporation method, S. pneum 6303; format: cell-based, Streptococcus pneumoniae; details: in vitro, 18 hours
Source text: as §1, §2, §3

VRE 6A (Ent. faecium 6A) = experiment: MIC by agar incorporation method, VRE 6A; format: cell-based, Enterococcus faecium; details: in vitro, 18 hours
Source text: as §1, §2, §3

S. pneum AB34 = experiment: MIC by agar incorporation method, S. pneum AB34; format: cell-based, Streptococcus pneumoniae; details: in vitro, 18 hours
Procedure: as §1, §3

MRSA 33 = experiment: MIC by agar incorporation method, MRSA 33; format: cell-based, Methicillin Resistant Staphylococcus aureus; details: in vitro, 24 hours
Procedure: as §1, §3

MRSA 562 = experiment: MIC by agar incorporation method, MRSA 562; format: cell-based, Methicillin Resistant Staphylococcus aureus; details: in vitro, 24 hours
Procedure: as §1, §3

Ent. faecalis ATCC 29212 = experiment: MIC by agar incorporation method, E. faecalis 29212; format: cell-based, Enterococcus faecalis; details: in vitro, 18 hours
Source text: as §1, §2, §3

S. aureus ATCC 25923 = experiment: MIC by agar incorporation method, S. aureus ATCC 25923; format: cell-based, Staphylococus aureus; details: in vitro, 18 hours
Source text: as §1, §2, §3

MRSA 15187 = experiment: MIC by agar incorporation method, MRSA 15187; format: cell-based, Methicillin Resistant Staphylococcus aureus; details: in vitro, 24 hours
Source text: as §1, §2, §3

`NC(=S)NC[C@H]1CN(c2ccc(N3CCN(Cc4ccc([N+](=O)[O-])o4)CC3)c(F)c2)C(=O)O1` [Compound No. 10, (S)—N-[1-[[3-[3-Fluoro-4-[N-1-[4-{2-furyl-(5-nitro)methyl}]piperazinyl]phenyl]-2-oxo-5-oxazolidinyl]methyl]]-thiourea] was tested, and the “minimum inhibitory concentration, S. pyogenes 19615” value (Strep. pyog. ATCC 19615) was 0.25 µg/mL (≈ 0.522 µM), the “minimum inhibitory concentration, S. pneum 6303” value (Strep. pne. ATCC 6303) was <0.06 µg/mL and the “minimum inhibitory concentration, VRE 6A” value (VRE 6A (Ent. faecium 6A)) was 1 µg/mL (≈ 2.09 µM). For the same compound, the “minimum inhibitory concentration, S. pneum AB34” value (S. pneum AB34) was 0.24 µg/mL (≈ 0.502 µM), the “minimum inhibitory concentration, MRSA 33” value (MRSA 33) was 1 µg/mL (≈ 2.09 µM) and the “minimum inhibitory concentration, MRSA 562” value (MRSA 562) was 1 µg/mL (≈ 2.09 µM). For the same compound, the “minimum inhibitory concentration, E. faecalis 29212” value (Ent. faecalis ATCC 29212) was 0.5 µg/mL (≈ 1.04 µM), the “minimum inhibitory concentration, S. aureus 259231” value (S. aureus ATCC 25923) was 1 µg/mL (≈ 2.09 µM) and the “minimum inhibitory concentration, MRSA 15187” value (MRSA 15187) was 1 µg/mL (≈ 2.09 µM).
`NC(=S)NC[C@H]1CN(c2ccc(N3CCN(Cc4ccc([N+](=O)[O-])s4)CC3)c(F)c2)C(=O)O1` [Compound No. 12, (S)—N-[1-[[3-[3-Fluoro-4-[N-1-[4-{2-thienyl-(5-nitro)methyl}]piperazinyl]phenyl]-2-oxo-5-oxazolidinyl]methyl]]-thiourea] was tested, and the “minimum inhibitory concentration, S. pyogenes 19615” value (Strep. pyog. ATCC 19615) was <0.25 µg/mL, the “minimum inhibitory concentration, S. pneum 6303” value (Strep. pne. ATCC 6303) was 0.5 µg/mL (≈ 1.01 µM) and the “minimum inhibitory concentration, VRE 6A” value (VRE 6A (Ent. faecium 6A)) was 0.5 µg/mL (≈ 1.01 µM). For the same compound, the “minimum inhibitory concentration, S. pneum AB34” value (S. pneum AB34) was 0.5 µg/mL (≈ 1.01 µM), the “minimum inhibitory concentration, MRSA 33” value (MRSA 33) was 1 µg/mL (≈ 2.02 µM) and the “minimum inhibitory concentration, MRSA 562” value (MRSA 562) was 0.5 µg/mL (≈ 1.01 µM). The “minimum inhibitory concentration, E. faecalis 29212” value (Ent. faecalis ATCC 29212) was 1 µg/mL (≈ 2.02 µM), the “minimum inhibitory concentration, S. aureus 259231” value (S. aureus ATCC 25923) was 1 µg/mL (≈ 2.02 µM) and the “minimum inhibitory concentration, MRSA 15187” value (MRSA 15187) was 0.5 µg/mL (≈ 1.01 µM).
